Experimental data as given in article PMC10387993, “New pyrimidine-N-β-D-glucosides: synthesis, biological evaluation, and molecular docking investigations” (Turkish Journal of Chemistry, 2023).
Converted amounts (≈) assume the structure as drawn. Like-named read-outs stand apart in the source and are kept apart here. Each block holds one compound with its values, some of them ahead of it.

Key:
A549 = assay: cells; format: cell-based; details: A549, MTT
Description: (§1) The cell lines were cultured in a cell medium (Dulbecco’s modified eagle’s or RPMI 1640) enriched with 10% (v/v) fetal bovine serum and 2% (v/v) Penicillin-Streptomycin (10,000 U/mL). First, old medium was removed out of the flask when the cells reached approximately 80% confluence. Next, cells were taken from the flasks surface using trypsin-EDTA solution and then subjected to centrifugation. Following, the cell pellet was suspended with fresh media and was inoculated into wells.
(§2) A cell suspension containing approximately 1 × 10^4 cells in 100 μL was seeded into the wells of 96-well culture plates. […]. The final volume of the wells was set to 200 μL by medium. Cell proliferation assay was evaluated by MTT (yellow tetrazolium MTT (3-(4,5-dimethylthiazolyl-2)-2,5-diphenyltetrazolium bromide) methods. Briefly, an MTT stock solution (5 mg of MTT/mL of distilled water) was filtered and kept at −20 °C until use. The cells were exposed to an MTT reagent (consisting of one parts of MTT stock solutions and nine parts of fresh RPMI 1640 without phenol red) for 4 h to form MTT formazan dye followed by the dye dissolved in DMSO with Sorenson’s buffer for 30 min at room temperature and then the plate was measured at 560 nm, with 690 nm as a reference interval, using a microplate reader. Each experiment was repeated at least three times for each cell line.
(§3) IC50 value is a concentration that inhibits half of the cells in vitro. The half maximal inhibitory concentration (IC50) of the test and control compounds was calculated using XLfit5 or excel spreadsheet and represent in μM at 95% confidence intervals. The proliferation assay results were expressed as the percent inhibition according to the following formula: % Inhibition = [1 - (Absorbance of Treatments /Absorbance of DMSO) × 100]. Three dose response parameters (GI50, TGI, LC50) were calculated according to the following formulas using the absorbance measurements of time zero (Tz), control growth (C), and test growth in the presence of drug (Ti). Growth inhibition of 50% (GI50) was calculated from [(Ti-Tz)/(C-Tz)] × 100 = 50, which is the drug concentration resulting in a 50% reduction in the net growth increase in control cells during the drug incubation. The drug concentration resulting in total growth inhibition (TGI) was calculated from Ti = Tz. The LC50 indicating a net loss of cells following treatment was calculated from [(Ti-Tz)/Tz] × 100 = −50.

C6 (Rat brain glioma) = assay: cells; format: cell-based; details: C6, MTT
Description: as §1, §2, §3

HT29 = assay: cells; format: cell-based; details: HT29, MTT
Description: as §1, §2, §3

HeLa = assay: cells; format: cell-based; details: MTT
Description: as §1, §2, §3

Hep3B = assay: cells; format: cell-based; details: MTT
Description: as §1, §2, §3

MCF7 = assay: cells; format: cell-based; details: MCF7, MTT
Description: as §1, §2, §3

normal FL cells = assay: cells; format: cell-based; details: FL normal cells, MTT
Description: as §1, §2, §3

[1] = LDH cytotoxic activity assay, C6; format: cell-based; details: rat, C6 glioma cells, C6, 25 μg/mL
Description: as §1
(§4) Approximately 5 × 10^3 cells in 100 μL were placed into 96-well plates as triplicates and treated with 25, 50, 75, and 100 μg/mL concentrations of test compounds at 37 °C with 5% CO2 for 24 h. LDH activity was obtained by determining absorbance at 492–630 nm using a microplate reader.

[2] = LDH cytotoxic activity assay, HeLa; format: cell-based; details: human, HeLa cells, 25 μg/mL
Description: as §1, §4

[3] = LDH cytotoxic activity assay, HT29; format: cell-based; details: human, HT29 cells, HT29, 25 μg/mL
Description: as §1, §4

[4] = LDH cytotoxic activity assay, A549; format: cell-based; details: human, A549 cells, A549, 25 μg/mL
Description: as §1, §4

[5] = LDH cytotoxic activity assay, Hep3B; format: cell-based; details: human, Hep3B cells, 25 μg/mL
Description: as §1, §4

[6] = LDH cytotoxic activity assay, MCF7; format: cell-based; details: human, MCF7 cells, MCF7, 25 μg/mL
Description: as §1, §4

[7] = LDH cytotoxic activity assay, FL; format: cell-based; details: human, FL cells (normal cells), FL, 25 μg/mL
Description: as §1, §4

calf thymus DNA (CT-DNA) = details: CT-DNA binding experiments in the literature ref [32]–[33]; cited from earlier work

IC50 (A549; Homo sapiens, read-out: IC50): 69.8 mg/L (≈ 537 µM) | IC50 (C6 (Rat brain glioma); Rattus norvegicus, read-out: IC50): 54.3 mg/L (≈ 417 µM) | IC50 (HT29; Homo sapiens, HT-29, read-out: IC50): 65.2 mg/L (≈ 501 µM) | IC50 (HeLa; Homo sapiens, read-out: IC50): 61.6 mg/L (≈ 473 µM) | IC50 (Hep3B; Homo sapiens, read-out: IC50): 62.9 mg/L (≈ 483 µM) | IC50 (MCF7; Homo sapiens, read-out: IC50): 74.2 mg/L (≈ 570 µM)
Structure (SMILES): O=c1[nH]cc(F)c(=O)[nH]1 [Compound 5FU, 5-fluorouracil, reference compound]
IC50 (normal FL cells; read-out: IC50): 59.1 mg/L (≈ 454 µM) | cytotoxicity at 24 h, 25 μg/mL [1]: 10% | cytotoxicity at 24 h, 25 μg/mL [2]: 8.83% | cytotoxicity at 24 h, 25 μg/mL [3]: 7.91% | cytotoxicity at 24 h, 25 μg/mL [4]: 9.19% | cytotoxicity at 24 h, 25 μg/mL [5]: 9.67% | cytotoxicity at 24 h, 25 μg/mL [6]: 7.69% | cytotoxicity at 24 h, 25 μg/mL [7]: 8.44% | binding constant (Kb) (calf thymus DNA (CT-DNA)): 97000 M⁻¹

Structure (SMILES): N.N.[Cl][Pt][Cl] [Cisplatin, cisplatin, reference compound]
IC50 (A549): 60.49 mg/L | IC50 (C6 (Rat brain glioma)): 33.08 mg/L | IC50 (HT29): 40.39 mg/L | IC50 (HeLa): 50.29 mg/L | IC50 (Hep3B): 48.69 mg/L | IC50 (MCF7): 63.79 mg/L | IC50 (normal FL cells): 52.79 mg/L | binding constant (Kb) (calf thymus DNA (CT-DNA)): 57300 M⁻¹
